The results in this text go back to patent publication US20100317647A1 (priority 2009, published 2010).

Broadly, the IC50 is the point on the concentration scale where inhibition reaches its midpoint. Read a low IC50 as higher potency.

Molecules are shown by their SMILES.

Chain of human Cat S (P25774 115-331): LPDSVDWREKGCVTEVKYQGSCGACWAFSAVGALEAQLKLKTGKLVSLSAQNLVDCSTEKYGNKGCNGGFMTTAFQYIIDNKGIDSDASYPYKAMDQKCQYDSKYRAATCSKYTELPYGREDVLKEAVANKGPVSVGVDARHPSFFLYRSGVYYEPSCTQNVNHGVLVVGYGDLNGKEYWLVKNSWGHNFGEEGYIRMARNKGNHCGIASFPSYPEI

The test concerns the target human Cat S (Homo sapiens, UniProt P25774). Description: Cathepsin enzyme inhibition assay (fluorogenic peptide substrate cleavage). The test is classed as biochemical. Conditions: human Cat S 1 nM; substrate Z-Val-Val-Arg-AMC 20 μM; pH 6.5; fluorescence over 20 minutes. The essentials:
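IC50 values derived from fluorescence increase (ex 360 nm, em 465 nm) monitored for 20 minutes after substrate addition. Enzyme held at 1 nM with 20 μM Z-Val-Val-Arg-AMC, in pH 6.5 potassium phosphate buffer containing DTT, EDTA and Triton X-100.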
For the compound `N#CC1(NC(=O)[C@@H]2C[C@@H](S(=O)(=O)c3ccc(N4CCN(C5CC5)CC4)cc3Cl)C[C@H]2C(=O)N2CCC(F)(F)C2)CC1` [Example 191, (1R,2R,4R)-4-[2-Chloro-4-(4-cyclopropyl-piperazin-1-yl)-benzenesulfonyl]-2-(3,3-difluoro-pyrrolidine-1-carbonyl)-cyclopentanecarboxylic acid (1-cyano-cyclopropyl)-amide], half-maximal inhibition (IC50) was put at 0.575 nM.

For the compound `CC(C)(C)N1CCN(c2ccc(S(=O)(=O)[C@@H]3C[C@@H](C(=O)NC4(C#N)CC4)[C@H](C(=O)N4CCC(F)(F)C4)C3)c(Cl)c2)CC1` [Example 192, (1R,2R,4R)-4-[4-(4-tert-Butyl-piperazin-1-yl)-2-chloro-benzenesulfonyl]-2-(3,3-difluoro-pyrrolidine-1-carbonyl)-cyclopentanecarboxylic acid (1-cyano-cyclopropyl)-amide], the IC50 is 0.155 nM.

Take `Cn1nccc1-c1ccc(S(=O)(=O)[C@@H]2C[C@@H](C(=O)NC3(C#N)CC3)[C@H](C(=O)N3CCC(F)(F)C3)C2)c(Cl)c1` [Example 196, (1R,2R,4R)-4-[2-Chloro-4-(2-methyl-2H-pyrazol-3-yl)-benzenesulfonyl]-2-(3,3-difluoro-pyrrolidine-1-carbonyl)-cyclopentanecarboxylic acid (1-cyano-cyclopropyl)-amide]: the IC50 stood at 0.215 nM.

The compound `Cn1cc(-c2ccc(S(=O)(=O)[C@@H]3C[C@@H](C(=O)NC4(C#N)CC4)[C@H](C(=O)N4CCC(F)(F)C4)C3)c(Cl)c2)cn1` [Example 197, (1R,2R,4R)-4-[2-Chloro-4-(1-methyl-1H-pyrazol-4-yl)-benzenesulfonyl]-2-(3,3-difluoro-pyrrolidine-1-carbonyl)-cyclopentanecarboxylic acid (1-cyano-cyclopropyl)-amide] returned an IC50 of 0.14 nM.

Consider `Cc1cc(-c2ccc(S(=O)(=O)[C@@H]3C[C@@H](C(=O)NC4(C#N)CC4)[C@H](C(=O)N4CCC(F)(F)C4)C3)c(Cl)c2)ccn1` [Example 198, (1R,2R,4R)-4-[2-Chloro-4-(2-methyl-pyridin-4-yl)-benzenesulfonyl]-2-(3,3-difluoro-pyrrolidine-1-carbonyl)-cyclopentanecarboxylic acid (1-cyano-cyclopropyl)-amide], for which the IC50 amounted to 0.135 nM.

`N#CC1(NC(=O)[C@@H]2C[C@@H](S(=O)(=O)c3ccc(-c4ccnc(Cl)c4)cc3Cl)C[C@H]2C(=O)N2CCC(F)(F)C2)CC1` [Example 199, (1R,2R,4R)-4-[2-Chloro-4-(2-chloro-pyridin-4-yl)-benzenesulfonyl]-2-(3,3-difluoro-pyrrolidine-1-carbonyl)-cyclopentanecarboxylic acid (1-cyano-cyclopropyl)-amide] had an IC50 of 0.135 nM.

In turn, `Cc1ccc(S(=O)(=O)[C@@H]2C[C@@H](C(=O)NC3(C#N)CC3)[C@H](C(=O)N3CCC(F)(F)C3)C2)c(Cl)c1` [Example 200, (1R,2R,4R)-4-(2-Chloro-4-methyl-benzenesulfonyl)-2-(3,3-difluoro-pyrrolidine-1-carbonyl)-cyclopentanecarboxylic acid (1-cyano-cyclopropyl)-amide] came in with an IC50 of 0.445 nM.

`Cn1nccc1-c1cccc(S(=O)(=O)[C@@H]2C[C@@H](C(=O)NC3(C#N)CC3)[C@H](C(=O)N3CCC(F)(F)C3)C2)c1` [Example 201, (1R,2R,4R)-2-(3,3-Difluoro-pyrrolidine-1-carbonyl)-4-[3-(2-methyl-2H-pyrazol-3-yl)-benzenesulfonyl]-cyclopentanecarboxylic acid (1-cyano-cyclopropyl)-amide] gave an IC50 of 0.34 nM.

`Cn1cc(-c2cccc(S(=O)(=O)[C@@H]3C[C@@H](C(=O)NC4(C#N)CC4)[C@H](C(=O)N4CCC(F)(F)C4)C3)c2)cn1` [Example 202, (1R,2R,4R)-2-(3,3-Difluoro-pyrrolidine-1-carbonyl)-4-[3-(1-methyl-1H-pyrazol-4-yl)-benzenesulfonyl]-cyclopentanecarboxylic acid (1-cyano-cyclopropyl)-amide]: the IC50 worked out at 0.38 nM.

As for `Cc1cc(-c2cccc(S(=O)(=O)[C@@H]3C[C@@H](C(=O)NC4(C#N)CC4)[C@H](C(=O)N4CCC(F)(F)C4)C3)c2)ccn1` [Example 203, (1R,2R,4R)-2-(3,3-Difluoro-pyrrolidine-1-carbonyl)-4-[3-(2-methyl-pyridin-4-yl)-benzenesulfonyl]-cyclopentanecarboxylic acid (1-cyano-cyclopropyl)-amide], the concentration for half-maximal inhibition (IC50) is 0.195 nM.

Regarding `N#CC1(NC(=O)[C@@H]2C[C@@H](S(=O)(=O)c3cccc(-c4ccnc(Cl)c4)c3)C[C@H]2C(=O)N2CCC(F)(F)C2)CC1` [Example 204, (1R,2R,4R)-4-[3-(2-Chloro-pyridin-4-yl)-benzenesulfonyl]-2-(3,3-difluoro-pyrrolidine-1-carbonyl)-cyclopentanecarboxylic acid (1-cyano-cyclopropyl)-amide], the IC50 amounted to 0.135 nM.

Compound `Cc1cccc(S(=O)(=O)[C@@H]2C[C@@H](C(=O)NC3(C#N)CC3)[C@H](C(=O)N3CCC(F)(F)C3)C2)c1` [Example 205, (1R,2R,4R)-2-(3,3-Difluoro-pyrrolidine-1-carbonyl)-4-(toluene-3-sulfonyl)-cyclopentanecarboxylic acid (1-cyano-cyclopropyl)-amide] gave an IC50 of 0.325 nM.

Take `CC(=O)N1CCN(c2ccc(S(=O)(=O)[C@@H]3C[C@@H](C(=O)NC4(C#N)CC4)[C@H](C(=O)N4CCC(F)(F)C4)C3)c(Cl)c2)CC1` [Example 208, (1R,2R,4R)-4-[4-(4-Acetyl-piperazin-1-yl)-2-chloro-benzenesulfonyl]-2-(3,3-difluoro-pyrrolidine-1-carbonyl)-cyclopentanecarboxylic acid (1-cyano-cyclopropyl)-amide]: it took 1.45 nM to reach half-maximal inhibition (IC50).

For the compound `CC(=O)N1CCN(c2ccc(S(=O)(=O)[C@H]3C[C@@H](C(=O)NC4(C#N)CC4)[C@H](C(=O)N4CCC(F)(F)C4)C3)c(Cl)c2)CC1` [Example 209, (1R,2R,4S)-4-[4-(4-Acetyl-piperazin-1-yl)-2-chloro-benzenesulfonyl]-2-(3,3-difluoro-pyrrolidine-1-carbonyl)-cyclopentanecarboxylic acid (1-cyano-cyclopropyl)-amide], the concentration for half-maximal inhibition (IC50) was 0.54 nM.

In turn, `N#CC1(NC(=O)[C@@H]2C[C@@H](S(=O)(=O)c3ccc(Cl)cn3)C[C@H]2C(=O)N2CCC(F)(F)C2)CC1` [Example 225, (1R,2R,4R)-4-(5-Chloro-pyridine-2-sulfonyl)-2-(3,3-difluoro-pyrrolidine-1-carbonyl)-cyclopentanecarboxylic acid (1-cyano-cyclopropyl)-amide] showed an IC50 of 0.38 nM.

On to `N#CC1(NC(=O)[C@@H]2C[C@H](S(=O)(=O)c3ccc(Cl)cn3)C[C@H]2C(=O)N2CCC(F)(F)C2)CC1` [Example 226, (1R,2R,4S)-4-(5-Chloro-pyridine-2-sulfonyl)-2-(3,3-difluoro-pyrrolidine-1-carbonyl)-cyclopentanecarboxylic acid (1-cyano-cyclopropyl)-amide], for which 50 nM corresponded to half-maximal inhibition (IC50).

In turn, `N#CC1(NC(=O)[C@@H]2C[C@@H](S(=O)(=O)c3ccccn3)C[C@H]2C(=O)N2CCC(F)(F)C2)CC1` [Example 227, (1R,2R,4R)-2-(3,3-Difluoro-pyrrolidine-1-carbonyl)-4-(pyridine-2-sulfonyl)-cyclopentanecarboxylic acid (1-cyano-cyclopropyl)-amide] gave an IC50 of 0.555 nM.

The compound `N#CC1(NC(=O)[C@@H]2C[C@H](S(=O)(=O)c3ccccn3)C[C@H]2C(=O)N2CCC(F)(F)C2)CC1` [Example 228, (1R,2R,4S)-2-(3,3-Difluoro-pyrrolidine-1-carbonyl)-4-(pyridine-2-sulfonyl)-cyclopentanecarboxylic acid (1-cyano-cyclopropyl)-amide] yielded an IC50 of 91 nM.
